Key:
[1] = target: T1, HSD2 (11β-hydroxysteroid dehydrogenase type 2) (Homo sapiens, UniProt P80365); test: inhibition of […]-CT to […]-OCDO conversion in HSD2-transfected HEK-293T lysate (TLC), Lineweaver-Burk and Dixon analysis; assay type: biochemical
T1 construct: gene HSD11B2; recombinant HSD2 (pCMV6-XL5 HSD2, SC122552) in HEK-293T cell lysate
T1 sequence (P80365 1-405): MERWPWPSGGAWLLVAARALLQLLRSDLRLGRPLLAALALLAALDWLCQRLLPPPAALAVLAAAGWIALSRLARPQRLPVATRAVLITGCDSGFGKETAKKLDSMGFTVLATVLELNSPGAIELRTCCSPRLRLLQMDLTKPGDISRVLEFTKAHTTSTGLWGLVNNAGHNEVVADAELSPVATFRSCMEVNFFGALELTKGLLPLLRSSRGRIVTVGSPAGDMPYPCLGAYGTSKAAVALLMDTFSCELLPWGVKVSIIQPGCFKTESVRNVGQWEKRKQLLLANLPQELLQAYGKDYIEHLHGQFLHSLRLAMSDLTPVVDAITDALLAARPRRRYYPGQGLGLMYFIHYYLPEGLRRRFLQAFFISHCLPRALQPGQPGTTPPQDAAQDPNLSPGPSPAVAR

[2] = target: T2, CYP27A1 (Homo sapiens, UniProt Q02318); test: inhibition of 27-hydroxylation of […]-CT in cells at […] (TLC); about […] (MDA-231) and […] (HepG2) reduction; assay type: cell-based
T2 construct: endogenous, MDA-231 and HepG2 cells
T2 sequence (Q02318 34-531): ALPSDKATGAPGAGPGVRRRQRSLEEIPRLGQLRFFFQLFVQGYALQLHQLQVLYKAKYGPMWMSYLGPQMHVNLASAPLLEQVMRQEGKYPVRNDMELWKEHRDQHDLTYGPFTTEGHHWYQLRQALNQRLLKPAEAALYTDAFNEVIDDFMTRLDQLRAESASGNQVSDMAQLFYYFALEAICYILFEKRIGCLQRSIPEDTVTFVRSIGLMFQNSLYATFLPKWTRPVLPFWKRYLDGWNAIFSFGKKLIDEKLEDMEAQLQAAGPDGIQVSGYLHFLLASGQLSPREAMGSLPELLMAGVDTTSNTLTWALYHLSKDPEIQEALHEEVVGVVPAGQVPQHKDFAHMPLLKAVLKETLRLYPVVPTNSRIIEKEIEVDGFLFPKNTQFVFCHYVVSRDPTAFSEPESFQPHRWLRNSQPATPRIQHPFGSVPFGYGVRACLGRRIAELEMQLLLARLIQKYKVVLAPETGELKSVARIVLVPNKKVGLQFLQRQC

C[C@@H](CO)CCC[C@@H](C)[C@H]1CC[C@H]2[C@@H]3C[C@@H](O)[C@@]4(O)C[C@@H](O)CC[C@]4(C)[C@H]3CC[C@]12C [27H-CT, (25R)-cholestane-3β,5α,6β,26-tetrol]
Ki [1]: 2.3 µM

CC(O)(CS(=O)(=O)c1ccc(F)cc1)C(=O)Nc1ccc(C#N)c(C(F)(F)F)c1 (centres unmarked) [bicalutamide]
inhibition at 10 µM [2]: ~60%

Reference: publication PMC10770617, “27-Hydroxylation of oncosterone by CYP27A1 switches its activity from pro-tumor to anti-tumor” (Journal of Lipid Research, 2023)
